Test results published in ChEMBL document CHEMBL1201862, “PubChem BioAssay data set” (2004).
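Protocol summary: plate cells (96-well), add compound at 5 concentrations, incubate 48 h, interpolate endpoints linearly. Here, GI50 denotes the concentration required for 50% inhibition of growth.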 The source made the active and inactive calls. Rule as the data show it: active = GI50 up to about 1.1 µM and inactive = higher.

Columns and labels:
Assay in all cases: NCI anticancer screen, dose series, 48 h
UACC-62 = system: UACC-62
HL-60 = system: HL-60
NCI-H522 = system: NCI-H522
K562 = system: K562
SK-OV-3 = system: SK-OV-3
HCT-15 = system: HCT-15
HOP-62 = system: HOP-62
SR = system: SR
Hs-578T = system: Hs-578T
A498 = system: A498
UACC-257 = system: UACC-257
MCF7 = system: MCF7
DU-145 = system: DU-145
U-251 = system: U-251
Malme-3M = system: Malme-3M
HCC 2998 = system: HCC 2998
BT-549 = system: BT-549
HCT-116 = system: HCT-116
SF-539 = system: SF-539
EKVX = system: EKVX

| SMILES | GI50 (UACC-62) | GI50 (HL-60) | GI50 (NCI-H522) | GI50 (K562) | GI50 (SK-OV-3) | GI50 (HCT-15) [µM] | GI50 (HOP-62) | GI50 (SR) | GI50 (Hs-578T) | GI50 (A498) | GI50 (UACC-257) | GI50 (MCF7) | GI50 (DU-145) | GI50 (U-251) | GI50 (Malme-3M) | GI50 (HCC 2998) | GI50 (BT-549) | GI50 (HCT-116) | GI50 (SF-539) | GI50 (EKVX) |
| --- | --- | --- | --- | --- | --- | --- | --- | --- | --- | --- | --- | --- | --- | --- | --- | --- | --- | --- | --- | --- |
| C=C=C(CC1CCCCC1=O)S(=O)(=O)c1ccccc1 (stereo not drawn) | > 5.12 µM (inactive) | 1.52 µM (inactive) | 0.245 µM (active) | 1.69 µM (inactive) | > 10 µM (inactive) | 4.52 | > 10 µM (inactive) | 2.41 µM (inactive) | > 10 µM (inactive) | > 10 µM (inactive) | > 10 µM (inactive) | 3.23 µM (inactive) | > 7.13 µM (inactive) | > 10 µM (inactive) | > 10 µM (inactive) | > 8.71 µM (inactive) | > 10 µM (inactive) | 2.65 µM (inactive) | > 10 µM (inactive) | > 10 µM (inactive) |
| CNC1C(O)C(OC2C(N)CC(N)C(OC3OC(CN)=CCC3N)C2O)OCC1(C)O (stereo not drawn) | > 100 µM (inactive) | > 100 µM (inactive) | > 100 µM (inactive) | > 100 µM (inactive) | > 100 µM (inactive) | > 100 | > 100 µM (inactive) | > 100 µM (inactive) | > 100 µM (inactive) | > 100 µM (inactive) | > 100 µM (inactive) | > 100 µM (inactive) | > 100 µM (inactive) | > 100 µM (inactive) | > 100 µM (inactive) | > 100 µM (inactive) | > 100 µM (inactive) | > 100 µM (inactive) | > 100 µM (inactive) | > 100 µM (inactive) |
| O=C(O)C(O)C(O)C(O)C(O)CO.[Ba+2] (stereo not drawn) | > 100 µM (inactive) | 3.12 µM (inactive) | > 100 µM (inactive) | > 100 µM (inactive) | > 100 µM (inactive) | > 100 | > 100 µM (inactive) | > 100 µM (inactive) | > 100 µM (inactive) | > 100 µM (inactive) | > 100 µM (inactive) | > 100 µM (inactive) | > 100 µM (inactive) | > 100 µM (inactive) | > 100 µM (inactive) | > 100 µM (inactive) | > 100 µM (inactive) | > 100 µM (inactive) | > 100 µM (inactive) | > 100 µM (inactive) |
| Cn1ccnc1Sc1ccc(/C=N\NC(=O)c2cccc(F)c2)cc1[N+](=O)[O-] | 89.1 µM (inactive) | > 100 µM (inactive) | 24.7 µM (inactive) | > 100 µM (inactive) | 33.5 µM (inactive) | 78.7 | 37.3 µM (inactive) | 33.2 µM (inactive) | 24.2 µM (inactive) | 29.8 µM (inactive) | > 100 µM (inactive) | 27.8 µM (inactive) | 71.6 µM (inactive) | 21.1 µM (inactive) | > 100 µM (inactive) | > 100 µM (inactive) | 40.8 µM (inactive) | 83.9 µM (inactive) | 25.9 µM (inactive) | 45.1 µM (inactive) |
| COc1ccc(-c2[nH]c3c4c(nc5c(c24)C(=O)CC(C)(C)C5)CC(C)(C)C3)cc1 | > 100 µM (inactive) | 55.1 µM (inactive) | 54.5 µM (inactive) | 28.4 µM (inactive) | > 100 µM (inactive) | 54.2 | > 100 µM (inactive) | 13.2 µM (inactive) | 93.1 µM (inactive) | 28.6 µM (inactive) | 68.5 µM (inactive) | 58.3 µM (inactive) | > 100 µM (inactive) | 48.9 µM (inactive) | > 100 µM (inactive) | 55.6 µM (inactive) | 43.9 µM (inactive) | 70 µM (inactive) | 67.6 µM (inactive) | 47.3 µM (inactive) |
| COC(=O)/C=C\[C@@H]1[C@H](C)N1S(=O)(=O)c1ccc(C)cc1 (stereo partly drawn) | > 100 µM (inactive) | > 100 µM (inactive) | > 100 µM (inactive) | > 100 µM (inactive) | > 100 µM (inactive) | > 100 | > 100 µM (inactive) | > 100 µM (inactive) | > 100 µM (inactive) | > 100 µM (inactive) | > 100 µM (inactive) | > 100 µM (inactive) | > 100 µM (inactive) | > 100 µM (inactive) | > 100 µM (inactive) | > 100 µM (inactive) | > 100 µM (inactive) | > 100 µM (inactive) | > 100 µM (inactive) |  |
| OCc1ccc2c(c1)CC1(C2)Cc2cc3c(cc2C1O)CCC3 (stereo not drawn) | 3.72 µM (inactive) | 2.2 µM (inactive) | 3.23 µM (inactive) | 1.58 µM (inactive) | 8.75 µM (inactive) | 3.36 | 4.49 µM (inactive) | 2.33 µM (inactive) | 2.71 µM (inactive) | 4.44 µM (inactive) | 2.3 µM (inactive) | 3.66 µM (inactive) | 9.1 µM (inactive) | 3.3 µM (inactive) | 5.01 µM (inactive) | 6.55 µM (inactive) | 2.86 µM (inactive) | 3.37 µM (inactive) | 3.5 µM (inactive) | 10.1 µM (inactive) |
| CCCOc1cc2c(cc1O)CC[C@@H]1[C@@H]2CC[C@]2(C)[C@@H](O)CC[C@@H]12 | 1.2 µM (inactive) | 0.637 µM (active) | 0.383 µM (active) | 0.209 µM (active) | 3.04 µM (inactive) | 0.687 | 2.21 µM (inactive) | 0.209 µM (active) | 1.55 µM (inactive) | 5.37 µM (inactive) | 5.04 µM (inactive) | 2.18 µM (inactive) | 3.27 µM (inactive) | 1.87 µM (inactive) | 6.82 µM (inactive) | 4.56 µM (inactive) | 0.524 µM (active) | 1.64 µM (inactive) | 1.48 µM (inactive) | 6.27 µM (inactive) |
| Cc1sc2nc(N(C)C)oc(=O)c2c1C | > 100 µM (inactive) | 37.9 µM (inactive) | 30.8 µM (inactive) | 63.4 µM (inactive) | > 100 µM (inactive) | 82.6 | 51.5 µM (inactive) | 40.8 µM (inactive) | > 100 µM (inactive) | 81.3 µM (inactive) | > 100 µM (inactive) | > 100 µM (inactive) | > 100 µM (inactive) | > 100 µM (inactive) | > 100 µM (inactive) | > 100 µM (inactive) | 15.8 µM (inactive) | > 100 µM (inactive) | > 100 µM (inactive) | 59.6 µM (inactive) |
| CCCCN1C(=O)C[C@H]2[C@@H]3CCc4cc(OCCN5CCCC5)ccc4[C@H]3CC[C@]2(C)C1=O | 3.72 µM (inactive) | 7.1 µM (inactive) | 8.41 µM (inactive) | 1.74 µM (inactive) | 13.9 µM (inactive) | 6 | 4.07 µM (inactive) | 3.79 µM (inactive) | 13.2 µM (inactive) | 14.7 µM (inactive) | 4.38 µM (inactive) | 5.65 µM (inactive) | 13.9 µM (inactive) | 5.51 µM (inactive) | 3.89 µM (inactive) | 10.3 µM (inactive) | 13.7 µM (inactive) | 3.64 µM (inactive) | 9.71 µM (inactive) | 14.5 µM (inactive) |
| Cn1c2ccccc2c2c(-c3ccccc3)cc3c(c21)C(=O)C=CC3=O | 1.73 µM (inactive) | 0.361 µM (active) | 1.23 µM (inactive) | 0.249 µM (active) | > 10 µM (inactive) | 1.85 | > 7.4 µM (inactive) | 0.195 µM (active) | 3.54 µM (inactive) | 2.23 µM (inactive) | 2.11 µM (inactive) | 1.72 µM (inactive) | 5.4 µM (inactive) | 4.05 µM (inactive) | 2.06 µM (inactive) | > 4.88 µM (inactive) | 1.6 µM (inactive) | 1.45 µM (inactive) | 1.92 µM (inactive) | > 5.3 µM (inactive) |
| COc1ccc2c(c1)C(=O)C1CCC(=O)N1C2c1ccc2c(c1)OCO2 (stereo not drawn) | 13.6 µM (inactive) | 2.79 µM (inactive) | 5.04 µM (inactive) | 3.36 µM (inactive) | 26.3 µM (inactive) | 12.2 | 18.6 µM (inactive) | 4.56 µM (inactive) | 27.2 µM (inactive) | 17 µM (inactive) | 16.9 µM (inactive) | 4.83 µM (inactive) | 18.2 µM (inactive) | 15.2 µM (inactive) | 4.89 µM (inactive) | 14.8 µM (inactive) | 4.26 µM (inactive) | 3.67 µM (inactive) | 23 µM (inactive) | 20.3 µM (inactive) |
| COc1cccc(-c2cc(O)c3c(C)cc(C)nc3n2)c1 | 0.448 µM (active) | 0.182 µM (active) | 0.521 µM (active) | 0.158 µM (active) | 0.468 µM (active) | 0.399 | 1.09 µM (active) | 0.136 µM (active) | 0.538 µM (active) | 0.419 µM (active) |  | 0.442 µM (active) | 1.21 µM (inactive) | 0.526 µM (active) | 0.252 µM (active) | 0.682 µM (active) | 12.3 µM (inactive) | 0.395 µM (active) | 0.455 µM (active) | 3.85 µM (inactive) |
